Data published in patent US5858670A, “Bio-oligomer libraries and a method of use thereof” (The Arizona Board of Regents, priority 1996, dated 1999).
Read-outs that look alike come from different tables or passages of the source. Where no end group is shown, it is not given here. [ ]: non-standard residue; d: D form. Ahx = NCCCCCC(=O)O; βAla = NCCC(=O)O

How the values were obtained:
[1] = target: T1, streptavidin (Streptomyces avidinii, UniProt P22629); experiment: biotin inhibition of LHPQF-resin staining by streptavidin-alkaline phosphatase; type: binding
T1 construct: purchased Pierce, Rockford, Ill
Experimental: FIG. 8. […] A: 100 nM; B: 10 nM; C: 1 nM; and D: 0.1 nM biotin. Blank beads (β-Ala-aminocaproic acid-resin) were mixed 1:1 with the LHPQFD-resin prior to incubating with streptavidin-alkaline phosphatase to serve as an internal negative control.
The LHPQF-resin was then mixed with streptavidin-alkaline phosphatase in the presence of varying concentration of biotin. […] The inhibition study establishes that the HPQ consensus sequence binds to the biotin-binding site of streptavidin.

[2] = target: anti-v-mos MAb; experiment: solution phase binding studies with [3H]Ac-v-mos radioligand; design: species or system mouse; conditions: competition with 20 nM [3H]Ac-v-mos for 10 μg/ml anti-v-mos MAb
Experimental: Peptide ligand affinity for anti-v-mos mAb was measured by solution phase binding studies using [^3 H]acetyl v-mos peptide ([^3 H]Ac-v-mos) as the radioligand. The radioligand was prepared by N-terminal acetylation of v-mos peptide, prior to the deprotection of the side chains, with an equimolar amount of [^3 H]sodium acetate (specific activity=2.52 Ci/mmole, New England Nuclear, Boston, Mass.). […] Specific binding was defined as the difference between [^3 H]Ac-v-mos binding in-the presence (nonspecific) and absence (total) of 100 μM unlabelled v-mos peptide for each [^3 H]Ac-v-mos concentration. Bound radioligand was separated by centrifugation using a 10-fold excess (binding capacity relative to immunoglobulin used) of Protein-G Sepharose (Pharmacia) to precipitate the antibody. […] Over 50% of the total binding was specific in the inhibition studies. Saturation and inhibition binding constants were determined for single site binding by nonlinear regression analysis as previously described (Knapp and Yamamura, 1990, Life Sci. 46:1457-1463).

[3] = target: anti-β-endorphin MAb; experiment: anti-β-endorphin binding assay: peptide inhibition of [3H][Leu]enkephalin binding, solution phase; conditions: for Ki: competition with 5.0 nM [3H][Leu]enkephalin
Experimental: Peptide ligand binding affinities for the anti-β-endorphin monoclonal antibody were determined in solution phase. […] Specific binding was defined as the difference between binding measured in the presence or absence of 1.0 μM unlabelled [Leu]enkephalin. Bound radioligand was precipitated by the addition of a 10-fold excess of Protein-G Sepharose (Pharmacia) followed by an overnight incubation (23°-24° C.). The Protein-G Sepharose was collected by centrifugation (13,000×g for 5 minutes) and the pellets suspended in 250 μl 5% (v/v) acetic acid before transfer to vials for liquid scintillation counting. […] Peptide ligand inhibition curves were produced for eight concentrations of the peptide over a 400-fold range. Binding data for saturation and inhibition studies were analyzed by weighted-nonlinear regression methods using appropriate one site models reported by Knapp et al. (1990, J. Pharmacol. Exp. Ther. 255:1278-1282). Ki values for inhibition binding constants were calculated using the method of Cheng and Prusoff (1973, Biochem. Pharmacol. 22:3099-3102). Each Ki value was calculated from three to four independent determinations.

[4] = system: anti-β-endorphin MAb; experiment: library bead screening with biotinylated anti-β-endorphin MAb and streptavidin-alkaline phosphatase; type: binding; conditions: recycled pentapeptide library, 16 hours with biotinylated MAb
Experimental: Prior to using the same random peptide library to screen with anti-β-endorphin MAb, all the blue beads that had stained for streptavidin-alkaline phosphatase alone were removed. The remaining beads were then treated with 8M guanidine hydrochloride to remove any bound protein. This recycled library was then mixed with biotinylated anti-β-endorphin MAb (anti-β-endorphin, clone 3-E7, was obtained commercially from Boehringer Mannheim, Indianapolis, Ind.) for 16 hours. After extensive washing, a secondary step with streptavidin-alkaline phosphatase was used to trigger the staining reaction for the ELISA. […] Peptide analogues with various carboxyl terminus of these ligand leads were synthesized and their affinity (Ki) was determined using [^3 H]Leu-enkaphalin (New England Nuclear, Boston, Mass.) as the labelled ligand and the unlabelled peptides as the competing ligand (anti-β-endorphin assay, Section 10.1.2, supra).

[5] = system: anti-v-mos monoclonal antibody; experiment: bead staining with anti-v-mos monoclonal antibody and alkaline phosphatase secondary antibody (Example 8); type: binding, mouse; conditions: 1 μg/ml MAb, secondary antibody 1:2000, BCIP/NBT, 15 minutes
Experimental: The long v-mos beads were mixed with a thousand fold excess of the short v-mos beads. Two milliliters of the purified anti-v-mos monoclonal antibody (1 μg/ml) in PBS with 0.1% Tween 20 was added to the mixture of long and short v-mos beads and incubated at room temperature for one hour with gentle mixing. […]. The beads were then washed on a small polypropylene disposable column (obtained from Isolab) where the beads were retained by the frit. The beads were then mixed with 2 ml of a secondary antibody at 1:2000 dilution for one hour. After washing, the beads were poured into a polystyrene petri dish and allowed to settle. The supernatant was removed and a solution of 5-bromo-4-chloro-3-indoyl phosphate and nitro blue tetrazolium was gently added as a substrate.
This made it possible immediately to detect a single dark bead within a lawn of thousands of colorless beads. The distinction between the beads is illustrated in FIGS. 2 to 4, all of which are photographs at 40× magnification of the beads distributed in petri dishes. […] Accordingly, the beads that contained the peptide sequence of interest were readily distinguished and isolated from the other beads in the library.

[6] = system: anti-v-mos monoclonal antibody; experiment: PAM resin bead staining with anti-v-mos monoclonal antibody and labelled secondary antibody (Example 9); type: binding, mouse; conditions: 1 ug/ml MAb, secondary antibody 1:100, ABTS with H2O2, 15 minutes
Experimental: Approximately 0.1 mg of the PAM resin/v-mos peptide described above was mixed with a hundred-fold excess of N^β -Fmoc-alanine PAM resin beads obtained from Bachem, Inc. Two ml of the purified monoclonal antibody (1 ug/ml) in PBS plus 0.1% Tween 20 were added to the peptide/support mixture and incubated at room temperature for 45 minutes with gentle mixing.
The beads were washed on a small polypropylene disposable column (obtained from Isolab) which retained the beads on a frit. The beads were then mixed with 2 ml of […] secondary antibody (1:100 dilution) for one hour. After washing, the beads were spread on a piece of glass filter and soaked in 2,2'-azinobis (3-ethylbenzthiozoline sulfonic acid) (ABTS) substrate with H2 O2. […] A small surrounding lighter green halo formed on the glass filter. […] The v-mos beads were readily distinguished.

[7] = system: anti-v-mos; conditions: cited from earlier work
[8] = UV/VIS irradiation of ONb-linked peptide resins, HPLC of released product; type: physicochemical; conditions: in water
Experimental: Each peptide was irradiated for 1 and 3 hours with ultraviolet (UV) and visible (VIS) light in 0.3 ml of water or 3/7 mixture of chloroethanol:dichloromethane. A total of 16+16 experiments were run and assayed.
After exposure the supernatant was filtered off, lyophilized and re-dissolved to equal volumes of MeOH (0.3 ml). The products were analyzed on the HPLC.

[9] = peptide with carboxyl terminus --NH2, read-out: Ki, Carboxyl Terminus --NH2
[10] = peptide with carboxyl terminus --OH, read-out: Ki, Carboxyl Terminus --OH

T1 sequence (P22629 25-183, species assumed): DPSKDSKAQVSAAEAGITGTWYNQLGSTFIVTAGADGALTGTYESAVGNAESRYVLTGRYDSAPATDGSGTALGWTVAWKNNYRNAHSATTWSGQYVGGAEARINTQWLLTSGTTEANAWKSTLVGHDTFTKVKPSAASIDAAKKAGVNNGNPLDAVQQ

Compound: O=C(O)CCCC[C@@H]1SC[C@@H]2NC(=O)N[C@@H]21 [Biotin, biotin]
- inhibition of staining of LHPQF-resin ([1]; biotin 0.1 nM): no effect on the staining
- inhibition of staining of LHPQF-resin ([1]; biotin 1.0 nM): partially inhibited the staining
- inhibition of staining of LHPQF-resin ([1]; biotin 10 nM): partially inhibited the staining
- inhibition of staining of LHPQF-resin ([1]; biotin 100 nM): completely blocked staining
- effect on staining of LHPQF-resin mimotope beads ([1]; biotin 100, 10, 1 and 0.1 nM (figure legend)): concentration-dependent inhibitory effect

Compound: GRRPYG-OH
- Ki [2]: > 1000 µM

Compound: YGGLS
- Ki [3, 9]: 0.991 ± 0.052 µM
- Ki [3, 10]: 0.726 ± 0.134 µM
- identified as ligand bead in the screening [4]: identified in this screening

Compound: GSVYKA [short v-mos beads, residue 106-111 of the v-mos gene product on polyacrylamide bead; negative control, reference compound]
- bead colour after staining [5]: remained colorless

Compound: LGSGGFGSVYKA [residues 100 to 111 of the v-mos oncogene product, reference compound]
- Ki [2]: 3.2 ± 0.4 µM

Compound: GRREGP[βAla]-NH2
- Ki [2]: 26.9 ± 6.2 µM

Compound: GFGSVY[βAla]-OH
- Ki [2]: 529 to 770 µM

Compound: Gly-Phe-Gly-Ser-Val-Tyr-aminocaproic acid-β-Ala-resin (GFGSVY-{Ahx-βAla-PAM resin}) [PAM resin/v-mos peptide beads]
- bead colour after staining [6]: turned dark green

Compound: GRRAYE[βAla]-OH
- Ki [2]: 15.1 ± 0.5 µM

Compound: GRRGME-OH
- Ki [2]: > 100 µM

Compound: GSVYKA [short v-mos peptide]
- affinity of the antibody [7]: negligible affinity

Compound: YGGMV
- Ki [3, 9]: 14 ± 1.11 µM
- Ki [3, 10]: 8.78 ± 1.5 µM
- identified as ligand bead in the screening [4]: identified in this screening

Compound: YGALQ
- identified as ligand bead in the screening [4]: identified in this screening

Compound: GFGSVY[βAla]-NH2
- Ki [2]: 409 to 442 µM

Compound: YGGFT
- Ki [3, 9]: 0.0652 ± 0.0168 µM
- Ki [3, 10]: 0.0369 ± 0.0077 µM
- identified as ligand bead in the screening [4]: identified in this screening

Compound: YGGFA
- Ki [3, 9]: 0.072 ± 0.0164 µM
- Ki [3, 10]: 0.0329 ± 0.002 µM
- identified as ligand bead in the screening [4]: identified in this screening

Compound: [^3 H][Leu]enkephalin [reference compound]
- Kd ([3]; saturation analysis, n=3, 5 radioligand concentrations 1.87-30 nM): 0.00979 ± 0.00463 µM

Compound: GRRPYG[βAla]-NH2
- Ki [2]: 20.5 ± 4.5 µM

Compound: GRRAYE-NH2
- Ki [2]: 24.7 ± 7 µM

Compound: GFGSVY-OH
- Ki [2]: > 1000 µM

Compound: GRRAYE[βAla]-NH2
- Ki [2]: 9.02 to 20.4 µM

Compound: Leu-Gly-Ser-Gly-Gly-Phe-Ser-Val-Tyr-Lys-Ala-aminocaproic acid-ethylenediamine resin [long v-mos beads]
- bead colour after staining [5]: turned purple

Compound: GRRAYE-OH
- Ki [2]: 6.79 ± 2.31 µM

Compound: YGGFQ
- Ki [3, 9]: 0.0401 ± 0.006 µM
- Ki [3, 10]: 0.015 ± 0.0017 µM
- identified as ligand bead in the screening [4]: identified in this screening

Compound: YGGLQ
- Ki [3, 9]: 2.91 ± 0.695 µM
- Ki [3, 10]: 1.98 ± 0.303 µM

Compound: GFGSVY-NH2
- Ki [2]: 246 to 337 µM

Compound: Fmoc-Trp-Tyr (OBu^t)-Phe-βNb-gAla-ACA-EDA-PepSyn K [peptide i]
- cleavage product [8]: cleaved to a single product

Compound: GRRGME[βAla]-NH2
- Ki [2]: 24 ± 8.4 µM
